# Test system: NS1A functional cell-based assay, percent inhibition
# Experiment: NS1A inhibition, H1N1 influenza, cell based functional assay (AID 504329)
row,SMILES,IC50 [µM]
1,CN(C)c1ccnc2c[cH-]cc12.[Fe].c1ccc(-[c-]2[c-](-c3ccccc3)[c-](-c3ccccc3)[c-](-c3ccccc3)[c-]2-c2ccccc2)cc1 (configuration not stated),9.29
2,C#CCOCCOCCOCCNc1nc(N2CCN(C(=O)CCCCCCCCCCNC(=O)[C@H]([C@@H](C)CC)n3cc(CCCCN=C(N)N)nn3)CC2)nc(N2CCN(C(=O)CCCCCCCCCCNC(=O)[C@H](CO)n3cc(CCCCCN)nn3)CC2)n1,16.1
